Measurements taken from patent publication US12497393B2, “β-lactam compound, use thereof and preparation method therefor” (priority 2020, dated 2025).
Converted amounts (≈) assume the structure as drawn.

system: Acinetobacter baumannii; assay: Antibacterial activity MIC assay (two-fold dilution agar plating); format: cell-based; details: Acinetobacter baumannii, ATCC19606, Acinetobacter baumannii ATCC 19606; read-out: Minimal Inhibitory Concentration (MIC)
Method: (§1) Antibacterial Activity-Evaluating Method (MIC Assay)
(§2) In this study, the compounds of the present invention were tested for their antibacterial activities by using two-fold dilution agar plating method and Denley Multipoint Inoculator A400 according to the guidelines of the CLSI/NCCLS standard. The tested strains were amplified by hydrolyzed casein peptone (Mueller-Hinton Agar) broth and Brain and Heart Infusion. The strains used in this study were bacterial strains that were purchased from ATCC or clinically isolated in Chinese hospitals. Aztreonam, polymyxin or levofloxacin was used as positive control. The drugs were diluted with hydrolyzed casein peptone broth to the desired concentrations including 128.0, 64.0, 32.0, 16.0, 8.0, 4.0, 2.0, 1.0, 0.5, 0.25, 0.125, 0.06 and 0.03 μg/mL, and then placed respectively into each well and mixed thoroughly. After inoculation, the tested strains were incubated for 18 hours at a constant temperature of 35° C., and their growth levels were observed. The drug concentration with no microbial growth in the well was recorded as the lowest Minimal Inhibitory Concentration (MIC).

Row | Compound | MIC [µg/mL]
1 | CC(C)[C@H](O/N=C(\C(=O)N[C@@H]1C(=O)N(OS(=O)(=O)O)C1(C)C)c1csc(N)n1)C(=O)O [Compound A-4] | 64 (≈ 133 µM)

same assay, conditions: Acinetobacter baumannii, Acinetobacter baumannii 16-16; read-out: Minimal Inhibitory Concentration (MIC)

Row | Compound | MIC [µg/mL]
2 | CC(C)[C@H](O/N=C(\C(=O)N[C@@H]1C(=O)N(OS(=O)(=O)O)C1(C)C)c1csc(N)n1)C(=O)O [Compound A-4] | > 64

same assay, conditions: Acinetobacter baumannii, Acinetobacter baumannii 16-33; read-out: Minimal Inhibitory Concentration (MIC)

Row | Compound | MIC [µg/mL]
3 | CC(C)[C@H](O/N=C(\C(=O)N[C@@H]1C(=O)N(OS(=O)(=O)O)C1(C)C)c1csc(N)n1)C(=O)O [Compound A-4] | 32 (≈ 66.7 µM)

system: Citrobacter freundii; assay: as above; format: cell-based; details: ATCC43864; Citrobacter freundii ATCC 43864; read-out: Minimal Inhibitory Concentration (MIC)
Method: as §1, §2

Row | Compound | MIC [µg/mL]
4 | CC(C)[C@H](O/N=C(\C(=O)N[C@@H]1C(=O)N(OS(=O)(=O)O)C1(C)C)c1csc(N)n1)C(=O)O [Compound A-4] | 0.12 (≈ 0.25 µM)

system: Enterobacter aerogenes; assay: as above; format: cell-based; details: Klebsiella aerogenes, ATCC13048; Enterobacter aerogenes ATCC 13048; read-out: Minimal Inhibitory Concentration (MIC)
Method: as §1, §2

Row | Compound | MIC [µg/mL]
5 | CC(C)[C@H](O/N=C(\C(=O)N[C@@H]1C(=O)N(OS(=O)(=O)O)C1(C)C)c1csc(N)n1)C(=O)O [Compound A-4] | 0.5 (≈ 1.04 µM)

system: Enterobacter cloacae; assay: as above; format: cell-based; details: ATCC43560; Enterobacter cloacae ATCC 43560; read-out: Minimal Inhibitory Concentration (MIC)
Method: as §1, §2

Row | Compound | MIC [µg/mL]
6 | CC(C)[C@H](O/N=C(\C(=O)N[C@@H]1C(=O)N(OS(=O)(=O)O)C1(C)C)c1csc(N)n1)C(=O)O [Compound A-4] | 0.12 (≈ 0.25 µM)

same assay, conditions: Enterobacter cloacae CDC1000654; read-out: Minimal Inhibitory Concentration (MIC)

Row | Compound | MIC [µg/mL]
7 | CC(C)[C@H](O/N=C(\C(=O)N[C@@H]1C(=O)N(OS(=O)(=O)O)C1(C)C)c1csc(N)n1)C(=O)O [Compound A-4] | 1 (≈ 2.09 µM)

system: Escherichia coli; assay: as above; format: cell-based; details: Escherichia coli, ATCC25922, Escherichia coli ATCC 25922, ESBLs(−); read-out: Minimal Inhibitory Concentration (MIC)
Method: as §1, §2

Row | Compound | MIC [µg/mL]
8 | CC(C)[C@H](O/N=C(\C(=O)N[C@@H]1C(=O)N(OS(=O)(=O)O)C1(C)C)c1csc(N)n1)C(=O)O [Compound A-4] | 0.25 (≈ 0.521 µM)

same assay, conditions: Escherichia coli, ATCC35218, Escherichia coli ATCC 35218, ESBLs(+); read-out: Minimal Inhibitory Concentration (MIC)

Row | Compound | MIC [µg/mL]
9 | CC(C)[C@H](O/N=C(\C(=O)N[C@@H]1C(=O)N(OS(=O)(=O)O)C1(C)C)c1csc(N)n1)C(=O)O [Compound A-4] | 0.12 (≈ 0.25 µM)

same assay, conditions: Escherichia coli, Escherichia coli 08-85, mcr-1(+); read-out: Minimal Inhibitory Concentration (MIC)

Row | Compound | MIC [µg/mL]
10 | CC(C)[C@H](O/N=C(\C(=O)N[C@@H]1C(=O)N(OS(=O)(=O)O)C1(C)C)c1csc(N)n1)C(=O)O [Compound A-4] | 0.25 (≈ 0.521 µM)

same assay, conditions: Escherichia coli, Escherichia coli 13-43, mcr-1(+); read-out: Minimal Inhibitory Concentration (MIC)

Row | Compound | MIC [µg/mL]
11 | CC(C)[C@H](O/N=C(\C(=O)N[C@@H]1C(=O)N(OS(=O)(=O)O)C1(C)C)c1csc(N)n1)C(=O)O [Compound A-4] | 0.25 (≈ 0.521 µM)

same assay, conditions: Escherichia coli, Escherichia coli 13-66, mcr-1(+); read-out: Minimal Inhibitory Concentration (MIC)

Row | Compound | MIC [µg/mL]
12 | CC(C)[C@H](O/N=C(\C(=O)N[C@@H]1C(=O)N(OS(=O)(=O)O)C1(C)C)c1csc(N)n1)C(=O)O [Compound A-4] | 0.25 (≈ 0.521 µM)

same assay, conditions: Escherichia coli, Escherichia coli 16-1, ESBLs(+); read-out: Minimal Inhibitory Concentration (MIC)

Row | Compound | MIC [µg/mL]
13 | CC(C)[C@H](O/N=C(\C(=O)N[C@@H]1C(=O)N(OS(=O)(=O)O)C1(C)C)c1csc(N)n1)C(=O)O [Compound A-4] | 0.12 (≈ 0.25 µM)

same assay, conditions: Escherichia coli, Escherichia coli 16-7, ESBLs(−); read-out: Minimal Inhibitory Concentration (MIC)

Row | Compound | MIC [µg/mL]
14 | CC(C)[C@H](O/N=C(\C(=O)N[C@@H]1C(=O)N(OS(=O)(=O)O)C1(C)C)c1csc(N)n1)C(=O)O [Compound A-4] | 0.25 (≈ 0.521 µM)

same assay, conditions: Escherichia coli, Escherichia coli 17-R28, CRE, NDM-1(+); read-out: Minimal Inhibitory Concentration (MIC)

Row | Compound | MIC [µg/mL]
15 | CC(C)[C@H](O/N=C(\C(=O)N[C@@H]1C(=O)N(OS(=O)(=O)O)C1(C)C)c1csc(N)n1)C(=O)O [Compound A-4] | 8 (≈ 16.7 µM)

same assay, conditions: Escherichia coli, Escherichia coli CDC1001728, NDM-1(+); read-out: Minimal Inhibitory Concentration (MIC)

Row | Compound | MIC [µg/mL]
16 | CC(C)[C@H](O/N=C(\C(=O)N[C@@H]1C(=O)N(OS(=O)(=O)O)C1(C)C)c1csc(N)n1)C(=O)O [Compound A-4] | 0.5 (≈ 1.04 µM)

system: Klebsiella Pneumoniae; assay: as above; format: cell-based; details: Klebsiella pneumoniae, ATCC700603, Klebsiella Pneumoniae ATCC 700603, ESBLs(+); read-out: Minimal Inhibitory Concentration (MIC)
Method: as §1, §2

Row | Compound | MIC [µg/mL]
17 | CC(C)[C@H](O/N=C(\C(=O)N[C@@H]1C(=O)N(OS(=O)(=O)O)C1(C)C)c1csc(N)n1)C(=O)O [Compound A-4] | 2 (≈ 4.17 µM)

same assay, conditions: Klebsiella pneumoniae, ATCCBAA2146, Klebsiella Pneumoniae ATCC BAA-2146, NDM-1(+); read-out: Minimal Inhibitory Concentration (MIC)

Row | Compound | MIC [µg/mL]
18 | CC(C)[C@H](O/N=C(\C(=O)N[C@@H]1C(=O)N(OS(=O)(=O)O)C1(C)C)c1csc(N)n1)C(=O)O [Compound A-4] | 0.5 (≈ 1.04 µM)

same assay, conditions: Klebsiella pneumoniae, Klebsiella Pneumoniae 09-20, mcr-1(+); read-out: Minimal Inhibitory Concentration (MIC)

Row | Compound | MIC [µg/mL]
19 | CC(C)[C@H](O/N=C(\C(=O)N[C@@H]1C(=O)N(OS(=O)(=O)O)C1(C)C)c1csc(N)n1)C(=O)O [Compound A-4] | 0.12 (≈ 0.25 µM)

same assay, conditions: Klebsiella pneumoniae, Klebsiella Pneumoniae 16-2, ESBLs(−); read-out: Minimal Inhibitory Concentration (MIC)

Row | Compound | MIC [µg/mL]
20 | CC(C)[C@H](O/N=C(\C(=O)N[C@@H]1C(=O)N(OS(=O)(=O)O)C1(C)C)c1csc(N)n1)C(=O)O [Compound A-4] | 1 (≈ 2.09 µM)

same assay, conditions: Klebsiella pneumoniae, Klebsiella Pneumoniae 16-14, ESBLs(+); read-out: Minimal Inhibitory Concentration (MIC)

Row | Compound | MIC [µg/mL]
21 | CC(C)[C@H](O/N=C(\C(=O)N[C@@H]1C(=O)N(OS(=O)(=O)O)C1(C)C)c1csc(N)n1)C(=O)O [Compound A-4] | 0.25 (≈ 0.521 µM)

same assay, conditions: Klebsiella pneumoniae, Klebsiella Pneumoniae 17-R27, CRE; read-out: Minimal Inhibitory Concentration (MIC)

Row | Compound | MIC [µg/mL]
22 | CC(C)[C@H](O/N=C(\C(=O)N[C@@H]1C(=O)N(OS(=O)(=O)O)C1(C)C)c1csc(N)n1)C(=O)O [Compound A-4] | 0.25 (≈ 0.521 µM)

system: Proteus mirabilis; assay: as above; format: cell-based; details: Proteus mirabilis, ATCC49565, Proteus mirabilis ATCC 49565; read-out: Minimal Inhibitory Concentration (MIC)
Method: as §1, §2

Row | Compound | MIC [µg/mL]
23 | CC(C)[C@H](O/N=C(\C(=O)N[C@@H]1C(=O)N(OS(=O)(=O)O)C1(C)C)c1csc(N)n1)C(=O)O [Compound A-4] | ≤ 0.03

system: Proteus vulgaris; assay: as above; format: cell-based; details: Proteus vulgaris, ATCC29905, Proteus vulgaris ATCC 29905; read-out: Minimal Inhibitory Concentration (MIC)
Method: as §1, §2

Row | Compound | MIC [µg/mL]
24 | CC(C)[C@H](O/N=C(\C(=O)N[C@@H]1C(=O)N(OS(=O)(=O)O)C1(C)C)c1csc(N)n1)C(=O)O [Compound A-4] | ≤ 0.03

system: Providencia rettgeri; assay: as above; format: cell-based; details: Providencia rettgeri, ATCC31052, Providencia rettgeri ATCC 31052; read-out: Minimal Inhibitory Concentration (MIC)
Method: as §1, §2

Row | Compound | MIC [µg/mL]
25 | CC(C)[C@H](O/N=C(\C(=O)N[C@@H]1C(=O)N(OS(=O)(=O)O)C1(C)C)c1csc(N)n1)C(=O)O [Compound A-4] | ≤ 0.03

system: Pseudomonas aeruginosa; assay: as above; format: cell-based; details: ATCC27853; Pseudomonas aeruginosa ATCC 27853; read-out: Minimal Inhibitory Concentration (MIC)
Method: as §1, §2

Row | Compound | MIC [µg/mL]
26 | CC(C)[C@H](O/N=C(\C(=O)N[C@@H]1C(=O)N(OS(=O)(=O)O)C1(C)C)c1csc(N)n1)C(=O)O [Compound A-4] | 8 (≈ 16.7 µM)

same assay, conditions: Pseudomonas aeruginosa 16-11; read-out: Minimal Inhibitory Concentration (MIC)

Row | Compound | MIC [µg/mL]
27 | CC(C)[C@H](O/N=C(\C(=O)N[C@@H]1C(=O)N(OS(=O)(=O)O)C1(C)C)c1csc(N)n1)C(=O)O [Compound A-4] | 8 (≈ 16.7 µM)

same assay, conditions: Pseudomonas aeruginosa PAO1; read-out: Minimal Inhibitory Concentration (MIC)

Row | Compound | MIC [µg/mL]
28 | CC(C)[C@H](O/N=C(\C(=O)N[C@@H]1C(=O)N(OS(=O)(=O)O)C1(C)C)c1csc(N)n1)C(=O)O [Compound A-4] | 4 (≈ 8.34 µM)

system: Salmonella typhi; assay: as above; format: cell-based; details: Salmonella enterica, TYPHI, read-out: Minimal Inhibitory Concentration (MIC)
Method: as §1, §2

Row | Compound | MIC [µg/mL]
29 | CC(C)[C@H](O/N=C(\C(=O)N[C@@H]1C(=O)N(OS(=O)(=O)O)C1(C)C)c1csc(N)n1)C(=O)O [Compound A-4] | 0.12 (≈ 0.25 µM)

system: Serratia marcescens; assay: as above; format: cell-based; details: ATCC21074; Serratia marcescens ATCC 21074; read-out: Minimal Inhibitory Concentration (MIC)
Method: as §1, §2

Row | Compound | MIC [µg/mL]
30 | CC(C)[C@H](O/N=C(\C(=O)N[C@@H]1C(=O)N(OS(=O)(=O)O)C1(C)C)c1csc(N)n1)C(=O)O [Compound A-4] | 0.25 (≈ 0.521 µM)

system: Shigella flexneri; assay: as above; format: cell-based; details: ATCC12022; Shigella flexneri ATCC 12022; read-out: Minimal Inhibitory Concentration (MIC)
Method: as §1, §2

Row | Compound | MIC [µg/mL]
31 | CC(C)[C@H](O/N=C(\C(=O)N[C@@H]1C(=O)N(OS(=O)(=O)O)C1(C)C)c1csc(N)n1)C(=O)O [Compound A-4] | 0.25 (≈ 0.521 µM)

system: Stenotrophomonas maltophilia; assay: as above; format: cell-based; details: ATCC13636; Stenotrophomonas maltophilia ATCC 13636; read-out: Minimal Inhibitory Concentration (MIC)
Method: as §1, §2

Row | Compound | MIC [µg/mL]
32 | CC(C)[C@H](O/N=C(\C(=O)N[C@@H]1C(=O)N(OS(=O)(=O)O)C1(C)C)c1csc(N)n1)C(=O)O [Compound A-4] | 8 (≈ 16.7 µM)
